Among the data in article PMC10604274, “The Antiviral Activity of Varenicline against Dengue Virus Replication during the Post-Entry Stage” (Biomedicines, 2023) are IC50 values, retold here.

The structures appear in SMILES notation.

The assay addresses T1, DENV-2 NS2B-NS3 protease (Dengue virus 2 Thailand/16681/84, UniProt P29990).
T1 construct: NS2BNS3 gene RT-PCR amplified from DENV-2 16681 RNA genome; AVI tag in forward primer, F2A peptide in reverse primer; in pcDNA3.1-HisC (pcDNA-DEN2_NS2BNS3), transiently expressed in HEK293T; parts of the genome polyprotein; with Serine protease subunit NS2B
Kind of assay: cell-based.

T1 sequence (P29990 1346-2093 limits assumed): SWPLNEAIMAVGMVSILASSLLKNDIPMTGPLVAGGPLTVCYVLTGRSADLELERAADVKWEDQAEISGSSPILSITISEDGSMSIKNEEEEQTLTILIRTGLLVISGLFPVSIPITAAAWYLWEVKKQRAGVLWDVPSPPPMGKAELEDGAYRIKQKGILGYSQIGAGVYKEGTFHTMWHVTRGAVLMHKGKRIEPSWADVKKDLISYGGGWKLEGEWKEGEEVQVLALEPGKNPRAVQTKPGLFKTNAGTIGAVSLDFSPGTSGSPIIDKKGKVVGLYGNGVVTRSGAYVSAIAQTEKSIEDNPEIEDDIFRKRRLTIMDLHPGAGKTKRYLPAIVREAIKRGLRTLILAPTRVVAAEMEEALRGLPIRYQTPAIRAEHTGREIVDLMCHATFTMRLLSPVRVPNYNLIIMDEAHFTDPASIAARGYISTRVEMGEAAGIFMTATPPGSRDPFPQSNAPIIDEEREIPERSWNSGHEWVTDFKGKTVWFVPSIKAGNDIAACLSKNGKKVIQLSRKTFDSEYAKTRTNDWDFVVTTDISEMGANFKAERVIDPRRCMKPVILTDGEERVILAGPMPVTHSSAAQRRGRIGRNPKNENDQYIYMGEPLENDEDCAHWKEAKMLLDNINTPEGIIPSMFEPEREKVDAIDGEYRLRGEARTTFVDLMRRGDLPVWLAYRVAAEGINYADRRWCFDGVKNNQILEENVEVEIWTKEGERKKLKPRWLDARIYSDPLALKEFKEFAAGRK

As to `c1cnc2cc3c(cc2n1)C1CNCC3C1` [varenicline], the half-maximal inhibitory concentration (IC50) was over 20 µM.

Usually IC50 stands for the midpoint of a concentration-inhibition curve. A high value points to lower potency.
